The source of these data is patent publication US20050054696A1, “Indole compounds and medicinal use thereof” (priority 2001, published 2005).

Test [1] addresses T1, recombinant human liver glycogen phosphorylase (HLGPa) (Homo sapiens, UniProt P06737).
T1 construct: made in house; host or cells: Sf9 insect cells (unpurified cell lysate used as enzyme solution)
T1 sequence (P06737 1-847): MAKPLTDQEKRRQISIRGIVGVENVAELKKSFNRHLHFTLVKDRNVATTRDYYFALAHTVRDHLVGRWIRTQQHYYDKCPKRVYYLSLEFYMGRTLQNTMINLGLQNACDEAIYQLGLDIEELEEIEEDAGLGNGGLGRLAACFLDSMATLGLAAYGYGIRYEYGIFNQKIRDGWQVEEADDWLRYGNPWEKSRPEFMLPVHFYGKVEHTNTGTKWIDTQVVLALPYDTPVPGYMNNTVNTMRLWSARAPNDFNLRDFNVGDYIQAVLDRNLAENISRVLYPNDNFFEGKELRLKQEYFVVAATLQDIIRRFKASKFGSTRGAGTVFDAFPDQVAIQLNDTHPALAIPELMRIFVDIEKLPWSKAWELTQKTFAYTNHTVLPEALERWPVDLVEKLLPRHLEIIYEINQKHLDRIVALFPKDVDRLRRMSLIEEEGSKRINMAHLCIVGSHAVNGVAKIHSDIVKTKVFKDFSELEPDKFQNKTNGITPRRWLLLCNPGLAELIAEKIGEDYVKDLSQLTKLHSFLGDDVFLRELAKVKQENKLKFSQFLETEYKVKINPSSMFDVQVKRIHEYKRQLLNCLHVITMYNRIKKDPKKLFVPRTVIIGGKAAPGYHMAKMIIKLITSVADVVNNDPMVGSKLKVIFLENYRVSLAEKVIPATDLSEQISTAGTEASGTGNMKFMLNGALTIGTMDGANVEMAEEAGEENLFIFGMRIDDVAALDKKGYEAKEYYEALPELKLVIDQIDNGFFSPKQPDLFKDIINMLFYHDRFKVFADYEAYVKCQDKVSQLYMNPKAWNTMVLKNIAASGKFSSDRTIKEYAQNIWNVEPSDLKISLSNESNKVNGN
The experiment in a line: Measurement of liver glycogen phosphorylase activity (enzyme inhibitory activity against HLGPa). The test is classed as biochemical. The note with it: Sf9 cell lysate expressing recombinant enzyme; reverse reaction (glycogen synthesis from G1-P), phosphate by malachite green, 60 min room temperature. Summed up: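 Activity was run in the reverse, glycogen-synthesis direction, using Sf9 lysate expressing recombinant human liver glycogen phosphorylase (enzyme solution 80 μg/mL protein, pH 7.0). Substrate solution was Tris pH 7.2 with 1.25 mM glucose-1-phosphate, 2.5 mg/ml glycogen and 7.5 mM glucose, reacted 60 min at room temperature. Released phosphate was measured by malachite green A650, with % inhibition taken against DMSO control and no-enzyme blank.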

The next test has as its system db/db mice. Kind of test: Measurement of plasma glucose concentration in obesity type diabetes model db/db mice. It counts as in vivo. The conditions noted are these: Mus musculus, po; plasma glucose 1 and 3 hr after administration, after fasting for 4 hr; significant difference vs solvent group (Dunnett's test); read-out: Minimum effective dose db/db mouse. The procedure: Measurement Method of Plasma Glucose Concentration
Using obesity type diabetes model db/db mice, the effect of the compound (1) of the present invention on glucose concentration in plasma was examined. The glucose concentration in the plasma of db/db mice (10-15 weeks of age) was measured, and the mice were grouped into 5 mice per group such that the average glucose concentration of plasma is leveled. After fasting for 4 hr, the test drug or a solvent (0.5% methyl cellulose) was orally administered to db/db mice, and plasma glucose concentration at 1 and 3 hr after the administration was measured. The hypoglycemic effect of the test drug was evaluated by detecting a significant difference every hour between the solvent administration group and the test drug administration group (Dunnett's test).

For the compound `N=C(NNC(=O)c1cc2cc(Cl)ccc2[nH]1)c1ccccc1Cl.O=C(O)/C=C\C(=O)O` [Example 6-18, 5-chloro-1H-indole-2-carboxylic acid 2-((2-chlorophenyl)-imino-methyl)hydrazide butenedioic acid salt], the 50% inhibitory concentration (IC50) in test [1] amounted to 49 nM. Moreover, the minimal effective dose in the test on db/db mice came to 3 mg/kg.

Consider `O=C(NN1C(=O)NC(c2ccc(F)cc2)C1=O)c1cc2cc(Cl)ccc2[nH]1` (stereo not shown) [Example 4-16, 5-chloro-1H-indole-2-carboxylic acid (2,5-dioxo-4-(4-fluorophenyl)imidazolidin-1-yl)amide], for which the minimal effective dose in the test on db/db mice is 10 mg/kg.

`Cc1ccc2[nH]c(C(=O)Nn3c(=O)[nH]c4cc(F)ccc4c3=O)cc2c1` [Example 2-24, 5-methyl-1H-indole-2-carboxylic acid (7-fluoro-1,2,3,4-tetrahydro-2,4-dioxoquinazolin-3-yl)amide]: in test [1], the IC50 came to 17 nM. In addition, the minimal effective dose in the test on db/db mice stood at 3 mg/kg.

On to `O=C(Nn1c(=O)[nH]c2cccc(Cl)c2c1=O)c1cc2cc(Cl)ccc2[nH]1` [Example 2-17, 5-chloro-1H-indole-2-carboxylic acid (5-chloro-1,2,3,4-tetrahydro-2,4-dioxoquinazolin-3-yl)amide], for which the IC50 in test [1] amounted to 37 nM. The minimal effective dose with db/db mice is 10 mg/kg.

Take `CS(=O)(=O)O.N=C(NNC(=O)c1cc2cc(Cl)ccc2[nH]1)c1ccccc1F` [Example 6-20, 5-chloro-1H-indole-2-carboxylic acid 2-((2-fluorophenyl)-imino-methyl)hydrazide methanesulfonate]: in test [1], the IC50 was found to be 110 nM. The minimal effective dose with db/db mice worked out at 3 mg/kg.

For the compound `Cc1ccc(C(=O)NNC(=O)c2cc3cc(Cl)ccc3[nH]2)s1` [Example 1-88, 5-methylthiophene-2-carboxylic acid 2-(5-chloro-1H-indole-2-carbonyl)hydrazide], the half-inhibitory concentration (IC50) in test [1] amounted to 20 nM. Also, the minimal effective dose with db/db mice is 10 mg/kg.

As for `O=C(NN1C(=O)N[C@@H](c2ccccc2)C1=O)c1cc2cc(Cl)ccc2[nH]1` (stereo in doubt) [Example 4, N-(2,4-dioxo-5-phenylimidazolidin-3-yl)-5-chloro-1H-indole-2-carboxamide], the IC50 in test [1] came out at 85 nM. In the test on db/db mice, the minimal effective dose was found to be 10 mg/kg.

Turning to `Cc1cccc(C(=N)NNC(=O)c2cc3cc(Cl)ccc3[nH]2)c1` [Example 1-134, 5-chloro-1H-indole-2-carboxylic acid 2-(imino-(m-tolyl)-methyl)hydrazide], the IC50 in test [1] is 40 nM. In the test with db/db mice, the minimal effective dose came out at 10 mg/kg.

As to `O=C(NN1C(=O)N[C@H](c2ccccc2)C1=O)c1cc2cc(Cl)ccc2[nH]1` [Example 4-6, 5-chloro-1H-indole-2-carboxylic acid ((4R)-2,5-dioxo-4-phenylimidazolidin-1-yl)amide], in test [1], the IC50 worked out at 65 nM. Moreover, in the test with db/db mice, the minimal effective dose was determined as 10 mg/kg.

Regarding `Cl.N=C(NNC(=O)c1cc2cc(Cl)ccc2[nH]1)c1ccccc1` [Example 6, 5-chloro-1H-indole-2-carboxylic acid 2-(imino-phenyl-methyl)hydrazide hydrochloride], the IC50 in test [1] came out at 62 nM. Further, in the test with db/db mice, the minimal effective dose was 3 mg/kg.

In the case of `O=C(NN1C(=O)CCNC1=O)c1cc2cc(Cl)ccc2[nH]1` [Example 3, N-(2,4-dioxo-perhydropyrimidin-3-yl)-5-chloro-1H-indole-2-carboxamide], the IC50 in test [1] is more than 100 nM. In addition, in the test on db/db mice, the minimal effective dose was 10 mg/kg.

With `CS(=O)(=O)O.N=C(Cc1ccccc1)NNC(=O)c1cc2cc(Cl)ccc2[nH]1` [Example 6-21], the minimal effective dose in the test on db/db mice was determined as 10 mg/kg.

On to `COc1ccc([C@@H]2NC(=O)N(NC(=O)c3cc4cc(Cl)ccc4[nH]3)C2=O)cc1` [Example 4-19, 5-chloro-1H-indole-2-carboxylic acid ((4S)-2,5-dioxo-4-(4-methoxyphenyl)imidazolidin-1-yl)amide], for which the IC50 in test [1] was 96 nM. The minimal effective dose in the test with db/db mice came to 10 mg/kg.

For `Cc1ccc2[nH]c(C(=O)Nn3c(=O)[nH]c4ccccc4c3=O)cc2c1` [Example 2-23, 5-methyl-1H-indole-2-carboxylic acid (1,2,3,4-tetrahydro-2,4-dioxoquinazolin-3-yl)amide], the IC50 in test [1] was determined as 24 nM. Moreover, the minimal effective dose in the test on db/db mice is 3 mg/kg.

Consider `O=C(NN1C(=O)CCN(c2cccc(F)c2)C1=O)c1cc2cc(Cl)ccc2[nH]1` [Example 3-7, 5-chloro-1H-indole-2-carboxylic acid (1-(3-fluorophenyl)-2,4-dioxoperhydropyrimidin-3-yl)amide], for which the IC50 in test [1] stood at 50 nM.

`Cc1ccc(N)c(C(=O)NNC(=O)c2cc3cc(Cl)ccc3[nH]2)c1` [Example 1-97, 2-amino-5-methylbenzoic acid 2-(5-chloro-1H-indole-2-carbonyl)hydrazide]: the IC50 in test [1] came to 10 nM.

Turning to `Nc1cc(Cl)ccc1C(=O)NNC(=O)c1cc2cc(Cl)ccc2[nH]1` [Example 1-54, 2-amino-4-chlorobenzoic acid 2-(5-chloro-1H-indole-2-carbonyl)hydrazide], the IC50 in test [1] was 30 nM.

`O=C(O)COc1cccc(C(=O)NNC(=O)c2cc3cc(Cl)ccc3[nH]2)c1` [Example 1-70, 2-(3-(2-(5-chloro-1H-indole-2-carbonyl)hydrazinocarbonyl)phenoxy)acetic acid]: in test [1], the IC50 was 150 nM.

Regarding `CN(NC(=O)c1cc2cc(Cl)ccc2[nH]1)C(=O)Nc1ccccc1` [Example 5-8, 5-chloro-1H-indole-2-carboxylic acid 2-(anilinocarbonyl)-2-methylhydrazide], in test [1], the IC50 is more than 100 nM.

As for `CN1C(=O)N(NC(=O)c2cc3cc(Cl)ccc3[nH]2)C(=O)[C@@H]1c1ccccc1` [Example 4-12, 5-chloro-1H-indole-2-carboxylic acid (1-methyl-2,5-dioxo-4-phenylimidazolidin-1-yl)amide], the IC50 in test [1] was more than 100 nM.

With `O=C(NN1CCN(c2ccccc2)C1=O)c1cc2cc(Cl)ccc2[nH]1` [Example 4-5, N-(2-oxo-1-phenylimidazolidin-3-yl)-5-chloro-1H-indole-2-carboxamide], in test [1], the IC50 is more than 100 nM.

Turning to `O=C(NNC(=O)c1cc2cc(Cl)ccc2[nH]1)c1ccc([N+](=O)[O-])cc1` [Example 1-12, 4-nitrobenzoic acid 2-(5-chloro-1H-indole-2-carbonyl)hydrazide], in test [1], the IC50 was 790 nM.

`COC(=O)COc1ccccc1C(=O)NNC(=O)c1cc2cc(Cl)ccc2[nH]1` [Example 1-49, 2-(2-(2-(5-chloro-1H-indole-2-carbonyl)hydrazinocarbonyl)phenoxy)acetic acid methyl ester]: the IC50 in test [1] came out at 150 nM.

Take `Nc1cnccc1C(=O)NNC(=O)c1cc2cc(Cl)ccc2[nH]1` [Example 1-41, 3-aminoisonicotinic acid 2-(5-chloro-1H-indole-2-carbonyl)hydrazide]: the IC50 in test [1] is 310 nM.

Take `N=C(NNC(=O)c1cc2cc(Cl)ccc2[nH]1)c1cnccn1` [Example 1-140, 5-chloro-1H-indole-2-carboxylic acid 2-(imino-(pyrazin-2-yl)-methyl)hydrazide]: the IC50 in test [1] is 180 nM.

Turning to `O=C(NNC(=O)c1ccccc1OCCO)c1cc2cc(Cl)ccc2[nH]1` [Example 1-68, 2-(2-hydroxyethoxy)benzoic acid 2-(5-chloro-1H-indole-2-carbonyl)hydrazide], the IC50 in test [1] is 160 nM.

On to `O=C(NN1C(=O)CCN(c2ccccc2)C1=O)c1cc2cc(F)ccc2[nH]1` [Example 3-9, 5-fluoro-1H-indole-2-carboxylic acid (2,4-dioxo-1-phenyl-perhydropyrimidin-3-yl)amide], for which the half-maximal inhibitory concentration (IC50) in test [1] is 730 nM.

Take `O=C(Nn1c(=O)[nH]c2ccc(Cl)cc2c1=O)c1cc2cc(Cl)ccc2[nH]1` [Example 2-18, 5-chloro-1H-indole-2-carboxylic acid (6-chloro-1,2,3,4-tetrahydro-2,4-dioxoquinazolin-3-yl)amide]: the IC50 in test [1] amounted to 40 nM.
